Calls of active or inactive are those of the source. No cut-off for these calls is given here.
Key:
[1] = test system: Internal ribosome entry site (IRES); experiment: Binding affinity to HCV 2AP54-labelled IRES subdomain 2a RNA in presence of Mg2+ by FRET assay; format: nucleic-acid assay; details: Hepacivirus hominis
[2] = test system: Internal ribosome entry site (IRES); experiment: Binding affinity to HCV Cy3/Cy5-labelled IRES subdomain 2a RNA by FRET assay; format: nucleic-acid assay; details: Hepacivirus hominis
[3] = target: Internal ribosome entry site (IRES); experiment: Binding affinity to HCV 2AP54-labelled IRES subdomain 2a RNA by mass spectrometry; format: nucleic-acid assay, Hepacivirus hominis
[4] = target: Internal ribosome entry site (IRES); experiment: Binding affinity to HCV 2AP54-labelled IRES subdomain 2a RNA U56G/A57U mutant in presence of 1 mM Mg2+ by FRET assay; format: nucleic-acid assay, Hepacivirus hominis
Hepacivirus hominis [5] = experiment: Inhibition of HCV NS5B RNA dependent RNA polymerase after 60 mins
[6] = target: Internal ribosome entry site (IRES); experiment: Binding affinity to HCV 2AP54-labelled IRES subdomain 2a RNA A57U mutant in presence of 1 mM Mg2+ by FRET assay; format: nucleic-acid assay, Hepacivirus hominis
[7] = test system: Internal ribosome entry site (IRES); experiment: Binding affinity to HCV 2AP54-labelled IRES subdomain 2a RNA in presence of Mg2+ by FRET assay in presence of eukaryotic tRNA; format: nucleic-acid assay; details: Hepacivirus hominis
[8] = target: Internal ribosome entry site (IRES); experiment: Binding affinity to HCV 2AP54-labelled IRES subdomain 2a RNA in presence of 1 mM Mg2+ by FRET assay; format: nucleic-acid assay, Hepacivirus hominis
[9] = target: Internal ribosome entry site (IRES); experiment: Binding affinity to HCV 2AP54-labelled IRES subdomain 2a RNA C58A mutant in presence of 1 mM Mg2+ by FRET assay; format: nucleic-acid assay, Hepacivirus hominis
[10] = target: Internal ribosome entry site (IRES); experiment: Binding affinity to HCV 2AP54-labelled IRES subdomain 2a RNA C55U mutant in presence of 1 mM Mg2+ by FRET assay; format: nucleic-acid assay, Hepacivirus hominis
Hepatitis C virus [11] = experiment: Inhibition of HCV 1b replicon translation in human HuH7 cells transfected with BM4-5 FEO HCV replicon RNA after 4 hrs by luciferase reporter assay; format: functional, organism-based, Hepacivirus hominis; details: genotype 1b, Huh-7, 4 h
Hepatitis C virus [12] = experiment: Inhibition of HCV 1b replicon translation in human HuH7 cells transfected with BM4-5 FEO HCV replicon RNA A57U mutant by luciferase reporter assay relaitv to wild type; format: functional, Hepacivirus hominis, genotype 1b, Huh-7
[13] = target: Internal ribosome entry site (IRES); experiment: Binding affinity to HCV 2AP54-labelled IRES subdomain 2a RNA A54G mutant in presence of 1 mM Mg2+ by FRET assay; format: nucleic-acid assay, Hepacivirus hominis
[14] = target: Internal ribosome entry site (IRES); experiment: Binding affinity to HCV 2AP54-labelled IRES subdomain 2a RNA C55A mutant in presence of 1 mM Mg2+ by FRET assay; format: nucleic-acid assay, Hepacivirus hominis
Hepatitis C virus [15] = experiment: Inhibition of HCV 1b replicon translation in human HuH7 cells transfected with BM4-5 FEO HCV replicon RNA after 8 hrs by luciferase reporter assay; format: functional, organism-based, Hepacivirus hominis; details: genotype 1b, Huh-7, 8 h
Hepatitis C virus [16] = experiment: Inhibition of HCV 1b replicon translation in human HuH7 cells transfected with BM4-5 FEO HCV replicon RNA after 48 hrs by luciferase reporter assay; format: functional, organism-based, Hepacivirus hominis; details: genotype 1b, Huh-7, 48 h
[17] = target: Internal ribosome entry site (IRES); experiment: Binding affinity to HCV 2AP54-labelled IRES subdomain 2a RNA in presence of 0.3 mM Mg2+ by FRET assay; format: nucleic-acid assay, Hepacivirus hominis
Hepacivirus hominis [18] = experiment: Inhibition of HCV NS5B RNA dependent RNA polymerase after 24 mins
[19] = Cytotoxicity against human HuH7 cells at 0.25-25 uM after 48 hrs by colorimetric viability assay; format: cell-based; details: huh-7, 48 h

SMILES	Activity [1]	Activity [2]	Kd [3] [nM]	EC50 [4] [nM]	inhibition (Hepacivirus hominis [5])	EC50 [6] [nM]	Activity [7]	EC50 [8] [nM]	EC50 [9] [nM]	EC50 [10] [nM]	IC50 (Hepatitis C virus [11]) [nM]	inhibition (INH) (Hepatitis C virus [12]) [%]	EC50 [13] [nM]	EC50 [14] [nM]	IC50 (Hepatitis C virus [15]) [nM]	IC50 (Hepatitis C virus [16]) [nM]	EC50 [17] [nM]	inhibition (Hepacivirus hominis [18])	Activity [19]
CN(C)CC1COc2ccc3nc4n(c3c2C1)CC(CN(C)C)CN4 (stereo not given)	Dose-dependent effect	inactive	720	4100	Active	4200	Active	600	760	320	4000	15	490	650	9500	2000	260	Active	Toxic
CN(C)CC(CO)Cn1c(N)nc2ccc3c(c21)CC(CO)CO3 (stereo not given)	–	–	–	–	–	–	–	90000	–	–	–	–	–	–	–	–	–	–	–

Reference: ChEMBL document CHEMBL1212732, “Conformational inhibition of the hepatitis C virus internal ribosome entry site RNA” (Nat Chem Biol, 2009)
